Assay results published in US11117892B2, “Pyrrolo-pyridine derivative compound, method for preparing same, and pharmaceutical composition containing same as active ingredient for prevention or treatment of protein kinase-related diseases” (DAEGU-GYEONGBUK MEDICAL INNOVATION FOUNDATION, priority 2017, dated 2021).

Key:
Assay in all cases: scanMAX Kinase assay panel
Format in all cases: binding
Details in all cases: read-out: % control
[1] = biological target: ABL1-phosphorylated (Homo sapiens (Human), UniProt P00519)
In short: (§1)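 The % control figures are compound readings scaled so that DMSO-treated wells correspond to 100% and the positive control corresponds to 0%. They were obtained on the scanMAX kinase panel.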

[2] = biological target: BMPR1A (Homo sapiens (Human), UniProt P36894)
In short: as §1

[3] = biological target: BRSK2 (Homo sapiens (Human), UniProt Q8IWQ3)
In short: as §1

[4] = biological target: CDC2L1 (Homo sapiens (Human), UniProt P21127)
In short: as §1

[5] = biological target: CDK7 (Homo sapiens (Human), UniProt P50613)
In short: as §1

[6] = biological target: CSK (Homo sapiens (Human), UniProt P41240)
In short: as §1

[7] = biological target: CSNK1A1L (Homo sapiens (Human), UniProt Q8N752)
In short: as §1

[8] = biological target: CSNK2A2 (Homo sapiens (Human), UniProt P19784)
In short: as §1

[9] = biological target: DMPK2 (Homo sapiens (Human), UniProt Q6DT37)
In short: as §1

[10] = biological target: DRAK2 (Homo sapiens (Human), UniProt O94768)
In short: as §1

[11] = biological target: EGFR(E746-A750del) (Homo sapiens (Human), UniProt P00533, DEL746-750)
In short: as §1

[12] = biological target: EGFR(T790M) (Homo sapiens (Human), UniProt P00533, T790M)
In short: as §1

[13] = biological target: EPHA2 (Homo sapiens (Human), UniProt P29317)
Chain of EPHA2 (P29317 24-976): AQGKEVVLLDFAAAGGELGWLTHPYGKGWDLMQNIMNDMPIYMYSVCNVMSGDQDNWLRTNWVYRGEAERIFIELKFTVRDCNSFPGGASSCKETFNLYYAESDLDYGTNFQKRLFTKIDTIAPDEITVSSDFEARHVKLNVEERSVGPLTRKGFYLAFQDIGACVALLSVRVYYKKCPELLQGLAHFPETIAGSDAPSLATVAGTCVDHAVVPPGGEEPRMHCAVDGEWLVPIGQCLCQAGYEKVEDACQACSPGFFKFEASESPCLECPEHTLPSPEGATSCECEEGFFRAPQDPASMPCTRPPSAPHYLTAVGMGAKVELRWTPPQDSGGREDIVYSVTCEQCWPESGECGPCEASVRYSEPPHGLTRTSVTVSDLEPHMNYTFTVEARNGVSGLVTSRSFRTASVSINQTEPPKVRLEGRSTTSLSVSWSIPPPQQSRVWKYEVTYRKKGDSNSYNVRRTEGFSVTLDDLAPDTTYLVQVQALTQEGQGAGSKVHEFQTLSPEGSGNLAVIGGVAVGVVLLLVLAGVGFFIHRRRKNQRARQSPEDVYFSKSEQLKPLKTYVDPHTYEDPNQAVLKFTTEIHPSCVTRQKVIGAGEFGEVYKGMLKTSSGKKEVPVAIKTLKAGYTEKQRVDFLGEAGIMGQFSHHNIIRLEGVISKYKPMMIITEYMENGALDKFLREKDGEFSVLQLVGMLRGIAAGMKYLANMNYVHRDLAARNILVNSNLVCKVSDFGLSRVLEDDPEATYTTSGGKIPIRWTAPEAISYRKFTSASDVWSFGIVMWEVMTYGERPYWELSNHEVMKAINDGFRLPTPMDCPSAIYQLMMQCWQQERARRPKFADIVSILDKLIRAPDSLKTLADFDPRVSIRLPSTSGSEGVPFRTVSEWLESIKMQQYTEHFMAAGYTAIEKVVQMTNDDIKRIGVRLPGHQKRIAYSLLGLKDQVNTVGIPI
In short: as §1

[14] = biological target: ERK3 (Homo sapiens (Human), UniProt Q16659)
In short: as §1

[15] = biological target: FES (Homo sapiens (Human), UniProt P07332)
In short: as §1

[16] = biological target: HPK1 (Homo sapiens (Human), UniProt Q92918)
In short: as §1

[17] = biological target: HUNK (Homo sapiens (Human), UniProt P57058)
In short: as §1

[18] = biological target: IKK-epsilon (Homo sapiens (Human), UniProt Q14164)
In short: as §1

[19] = biological target: INSRR (Homo sapiens (Human), UniProt P14616)
In short: as §1

[20] = biological target: KIT(L576P) (Homo sapiens (Human), UniProt P10721, L576P)
In short: as §1

[21] = biological target: MAK (Homo sapiens (Human), UniProt P20794)
In short: as §1

[22] = biological target: MAP3K1 (Homo sapiens (Human), UniProt Q13233)
In short: as §1

[23] = biological target: MEK3 (Homo sapiens (Human), UniProt P46734)
In short: as §1

[24] = biological target: MET(M1250T) (Homo sapiens (Human), UniProt P08581, M1250T)
Chain of MET(M1250T) (P08581 25-1390 M1250T): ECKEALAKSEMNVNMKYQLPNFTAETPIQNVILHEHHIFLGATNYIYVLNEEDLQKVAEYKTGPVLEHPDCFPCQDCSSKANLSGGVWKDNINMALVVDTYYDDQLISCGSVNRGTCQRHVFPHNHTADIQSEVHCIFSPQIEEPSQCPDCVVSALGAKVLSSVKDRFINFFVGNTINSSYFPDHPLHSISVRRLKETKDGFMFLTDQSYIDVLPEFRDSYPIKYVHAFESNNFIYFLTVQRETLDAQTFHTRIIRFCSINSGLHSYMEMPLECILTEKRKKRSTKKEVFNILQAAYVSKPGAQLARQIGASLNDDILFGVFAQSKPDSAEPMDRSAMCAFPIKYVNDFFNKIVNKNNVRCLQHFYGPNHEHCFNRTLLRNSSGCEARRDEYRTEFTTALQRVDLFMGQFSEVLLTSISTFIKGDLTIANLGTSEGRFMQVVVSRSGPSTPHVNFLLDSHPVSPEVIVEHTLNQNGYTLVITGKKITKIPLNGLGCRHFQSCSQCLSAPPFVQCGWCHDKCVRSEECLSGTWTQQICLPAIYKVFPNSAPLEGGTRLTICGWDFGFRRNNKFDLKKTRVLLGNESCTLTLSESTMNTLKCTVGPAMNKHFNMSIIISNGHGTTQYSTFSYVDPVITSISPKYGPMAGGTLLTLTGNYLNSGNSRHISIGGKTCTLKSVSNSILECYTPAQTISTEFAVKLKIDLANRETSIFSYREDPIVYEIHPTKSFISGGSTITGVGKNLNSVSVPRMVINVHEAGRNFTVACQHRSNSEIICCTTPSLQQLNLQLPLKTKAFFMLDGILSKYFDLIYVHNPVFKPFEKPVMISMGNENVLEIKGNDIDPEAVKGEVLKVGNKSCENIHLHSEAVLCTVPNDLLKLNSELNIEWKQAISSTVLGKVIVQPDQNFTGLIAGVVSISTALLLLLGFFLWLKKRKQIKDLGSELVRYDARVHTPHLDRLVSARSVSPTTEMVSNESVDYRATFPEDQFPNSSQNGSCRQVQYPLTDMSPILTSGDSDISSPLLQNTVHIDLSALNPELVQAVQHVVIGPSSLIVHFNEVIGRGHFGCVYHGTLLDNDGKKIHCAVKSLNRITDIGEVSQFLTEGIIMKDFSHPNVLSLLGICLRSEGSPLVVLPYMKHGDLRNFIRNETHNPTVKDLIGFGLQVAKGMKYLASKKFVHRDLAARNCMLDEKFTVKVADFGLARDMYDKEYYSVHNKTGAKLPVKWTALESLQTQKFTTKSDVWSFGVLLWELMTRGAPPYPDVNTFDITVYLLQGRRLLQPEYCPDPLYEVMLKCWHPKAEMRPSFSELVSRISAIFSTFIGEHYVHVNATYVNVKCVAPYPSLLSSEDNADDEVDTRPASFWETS
In short: as §1

[25] = biological target: MKK7 (Homo sapiens (Human), UniProt O14733)
In short: as §1

[26] = biological target: MLK2 (Homo sapiens (Human), UniProt Q02779)
Chain of MLK2 (Q02779 whole entry): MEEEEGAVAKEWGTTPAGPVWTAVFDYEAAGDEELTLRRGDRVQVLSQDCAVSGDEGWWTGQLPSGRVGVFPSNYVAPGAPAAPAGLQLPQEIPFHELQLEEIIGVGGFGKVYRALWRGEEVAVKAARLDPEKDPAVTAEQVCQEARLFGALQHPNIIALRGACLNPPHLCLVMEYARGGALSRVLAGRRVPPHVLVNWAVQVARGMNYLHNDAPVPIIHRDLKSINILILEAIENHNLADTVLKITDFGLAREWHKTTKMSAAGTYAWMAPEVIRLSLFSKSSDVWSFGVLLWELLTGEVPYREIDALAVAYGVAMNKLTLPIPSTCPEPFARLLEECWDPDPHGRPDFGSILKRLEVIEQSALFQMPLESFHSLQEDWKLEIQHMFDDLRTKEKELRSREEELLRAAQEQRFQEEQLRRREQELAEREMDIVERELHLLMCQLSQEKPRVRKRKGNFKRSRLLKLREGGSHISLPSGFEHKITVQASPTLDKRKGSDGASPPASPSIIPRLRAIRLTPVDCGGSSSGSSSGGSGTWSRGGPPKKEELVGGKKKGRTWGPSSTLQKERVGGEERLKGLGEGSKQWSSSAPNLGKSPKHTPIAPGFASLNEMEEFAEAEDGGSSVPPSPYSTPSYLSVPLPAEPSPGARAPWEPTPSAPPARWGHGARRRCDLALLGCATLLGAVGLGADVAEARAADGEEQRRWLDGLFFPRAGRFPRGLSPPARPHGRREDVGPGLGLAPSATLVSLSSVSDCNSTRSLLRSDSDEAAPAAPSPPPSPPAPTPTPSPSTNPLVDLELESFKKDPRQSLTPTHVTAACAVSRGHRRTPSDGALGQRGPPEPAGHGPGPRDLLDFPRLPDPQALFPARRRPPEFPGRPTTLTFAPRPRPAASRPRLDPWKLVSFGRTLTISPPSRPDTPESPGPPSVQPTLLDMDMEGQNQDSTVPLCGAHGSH
In short: as §1

[27] = biological target: NEK1 (Homo sapiens (Human), UniProt Q96PY6)
In short: as §1

[28] = biological target: OSR1 (Homo sapiens (Human), UniProt O95747)
In short: as §1

[29] = biological target: PDGFRB (Homo sapiens (Human), UniProt P09619)
In short: as §1

[30] = biological target: PHKG1 (Homo sapiens (Human), UniProt Q16816)
In short: as §1

[31] = biological target: PIK4CB (Homo sapiens (Human), UniProt Q9UBF8)
In short: as §1

[32] = biological target: PIP5K1A (Homo sapiens (Human), UniProt Q99755)
In short: as §1

[33] = biological target: PKAC-beta (Homo sapiens (Human), UniProt P22694)
In short: as §1

[34] = biological target: RIPK4 (Homo sapiens (Human), UniProt P57078)
Chain of RIPK4 (P57078 whole entry): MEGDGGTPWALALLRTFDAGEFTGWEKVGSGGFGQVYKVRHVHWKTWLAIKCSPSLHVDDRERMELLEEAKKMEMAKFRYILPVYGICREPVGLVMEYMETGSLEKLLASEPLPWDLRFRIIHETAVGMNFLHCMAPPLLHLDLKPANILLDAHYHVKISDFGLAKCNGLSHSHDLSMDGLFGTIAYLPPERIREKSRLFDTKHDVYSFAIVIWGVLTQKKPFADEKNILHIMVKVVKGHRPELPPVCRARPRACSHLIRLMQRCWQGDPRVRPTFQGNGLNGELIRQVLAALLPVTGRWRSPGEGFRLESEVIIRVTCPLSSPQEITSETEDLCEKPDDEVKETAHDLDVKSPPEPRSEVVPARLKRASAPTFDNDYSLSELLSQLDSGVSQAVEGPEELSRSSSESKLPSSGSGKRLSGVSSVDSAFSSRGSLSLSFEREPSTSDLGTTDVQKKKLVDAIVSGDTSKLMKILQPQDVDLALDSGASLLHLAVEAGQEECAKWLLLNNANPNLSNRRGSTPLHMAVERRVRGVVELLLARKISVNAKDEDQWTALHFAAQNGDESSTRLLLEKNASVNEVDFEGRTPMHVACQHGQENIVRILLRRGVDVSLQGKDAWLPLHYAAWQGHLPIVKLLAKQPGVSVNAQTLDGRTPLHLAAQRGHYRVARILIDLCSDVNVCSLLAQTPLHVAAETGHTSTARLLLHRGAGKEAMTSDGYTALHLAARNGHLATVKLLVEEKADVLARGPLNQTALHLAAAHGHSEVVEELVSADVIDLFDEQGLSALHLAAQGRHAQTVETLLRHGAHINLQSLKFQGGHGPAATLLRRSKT
In short: as §1

[35] = biological target: STK35 (Homo sapiens (Human), UniProt Q8TDR2)
In short: as §1

[36] = biological target: TLK1 (Homo sapiens (Human), UniProt Q9UKI8)
Chain of TLK1 (Q9UKI8 whole entry): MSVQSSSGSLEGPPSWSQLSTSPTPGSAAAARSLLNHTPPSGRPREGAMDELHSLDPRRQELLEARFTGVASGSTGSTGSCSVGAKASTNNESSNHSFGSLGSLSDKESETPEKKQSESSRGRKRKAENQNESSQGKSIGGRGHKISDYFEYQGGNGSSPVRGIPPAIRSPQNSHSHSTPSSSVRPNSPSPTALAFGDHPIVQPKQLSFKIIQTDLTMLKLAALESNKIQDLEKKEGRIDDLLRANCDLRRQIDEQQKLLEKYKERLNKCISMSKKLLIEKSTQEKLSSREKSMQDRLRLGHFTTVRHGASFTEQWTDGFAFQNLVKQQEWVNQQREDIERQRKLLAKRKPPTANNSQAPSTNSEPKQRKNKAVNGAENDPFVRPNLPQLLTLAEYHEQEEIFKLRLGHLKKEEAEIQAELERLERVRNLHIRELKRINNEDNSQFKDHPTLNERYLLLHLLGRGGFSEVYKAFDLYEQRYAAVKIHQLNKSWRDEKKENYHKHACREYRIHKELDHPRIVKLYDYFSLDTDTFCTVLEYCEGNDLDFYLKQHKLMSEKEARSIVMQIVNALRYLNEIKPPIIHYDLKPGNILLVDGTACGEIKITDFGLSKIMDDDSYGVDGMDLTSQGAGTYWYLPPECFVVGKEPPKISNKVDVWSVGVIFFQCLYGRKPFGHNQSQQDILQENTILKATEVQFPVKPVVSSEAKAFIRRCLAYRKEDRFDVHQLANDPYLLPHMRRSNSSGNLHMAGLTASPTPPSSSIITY
In short: as §1

[37] = biological target: TRPM6 (Homo sapiens (Human), UniProt Q9BX84)
In short: as §1

[38] = biological target: TYK2(JH1domain-catalytic) (Homo sapiens (Human), UniProt P29597)
In short: as §1

[39] = biological target: WEE2 (Homo sapiens (Human), UniProt P0C1S8)
In short: as §1

CCNc1cc(Nc2ccc(C(=O)N3CCC(N4CCOCC4)CC3)cc2OC)nc2[nH]cc(C#N)c12 [Example 18, 4-(ethylamino)-6-((2-methoxy-4-(4-morpholinopiperidine-1-carbonyl)phenyl)amino)-1H-pyrrolo[2,3-b]pyridine-3-carbonitrile]
remaining binding at 1 µM [1]: 87% | remaining binding at 1 µM [2]: 74% | remaining binding at 1 µM [3]: 96% | remaining binding at 1 µM [4]: 100% | remaining binding at 1 µM [5]: 55% | remaining binding at 1 µM [6]: 93% | remaining binding at 1 µM [7]: 3.1% | remaining binding at 1 µM [8]: 97% | remaining binding at 1 µM [9]: 85% | remaining binding at 1 µM [10]: 27% | remaining binding at 1 µM [11]: 83% | remaining binding at 1 µM [12]: 100% | remaining binding at 1 µM [13]: 97% | remaining binding at 1 µM [14]: 85% | remaining binding at 1 µM [15]: 89% | remaining binding at 1 µM [16]: 76% | remaining binding at 1 µM [17]: 57% | remaining binding at 1 µM [18]: 96% | remaining binding at 1 µM [19]: 24% | remaining binding at 1 µM [20]: 77% | remaining binding at 1 µM [21]: 92% | remaining binding at 1 µM [22]: 90% | remaining binding at 1 µM [23]: 4.3% | remaining binding at 1 µM [24]: 100% | remaining binding at 1 µM [25]: 89% | remaining binding at 1 µM [26]: 72% | remaining binding at 1 µM [27]: 100% | remaining binding at 1 µM [28]: 41% | remaining binding at 1 µM [29]: 76% | remaining binding at 1 µM [30]: 16% | remaining binding at 1 µM [31]: 80% | remaining binding at 1 µM [32]: 100% | remaining binding at 1 µM [33]: 66% | remaining binding at 1 µM [34]: 69% | remaining binding at 1 µM [35]: 85% | remaining binding at 1 µM [36]: 100% | remaining binding at 1 µM [37]: 87% | remaining binding at 1 µM [38]: 59% | remaining binding at 1 µM [39]: 91%

CCNc1cc(Nc2ccc(C(=O)N3CCC(N4CCOCC4)CC3)cc2OC)nc2[nH]cc(C(F)(F)F)c12 [Example 57, (4-((4-(ethylamino)-3-(trifluoromethyl)-1H-pyrrolo[2,3-b]pyridin-6-yl)amino)-3-methoxyphenyl) (4-morpholinopiperidin-1-yl)methanone]
remaining binding at 1 µM [1]: 61% | remaining binding at 1 µM [2]: 80% | remaining binding at 1 µM [3]: 79% | remaining binding at 1 µM [4]: 90% | remaining binding at 1 µM [5]: 53% | remaining binding at 1 µM [6]: 76% | remaining binding at 1 µM [7]: 71% | remaining binding at 1 µM [8]: 80% | remaining binding at 1 µM [9]: 96% | remaining binding at 1 µM [10]: 69% | remaining binding at 1 µM [11]: 98% | remaining binding at 1 µM [12]: 88% | remaining binding at 1 µM [13]: 83% | remaining binding at 1 µM [14]: 94% | remaining binding at 1 µM [15]: 87% | remaining binding at 1 µM [16]: 91% | remaining binding at 1 µM [17]: 51% | remaining binding at 1 µM [18]: 96% | remaining binding at 1 µM [19]: 60% | remaining binding at 1 µM [20]: 100% | remaining binding at 1 µM [21]: 95% | remaining binding at 1 µM [22]: 79% | remaining binding at 1 µM [23]: 81% | remaining binding at 1 µM [24]: 100% | remaining binding at 1 µM [25]: 93% | remaining binding at 1 µM [26]: 77% | remaining binding at 1 µM [27]: 81% | remaining binding at 1 µM [28]: 82% | remaining binding at 1 µM [29]: 92% | remaining binding at 1 µM [30]: 26% | remaining binding at 1 µM [31]: 100% | remaining binding at 1 µM [32]: 88% | remaining binding at 1 µM [33]: 92% | remaining binding at 1 µM [34]: 95% | remaining binding at 1 µM [35]: 98% | remaining binding at 1 µM [36]: 73% | remaining binding at 1 µM [37]: 97% | remaining binding at 1 µM [38]: 100% | remaining binding at 1 µM [39]: 96%
